Each compound was assayed against KRasG12C (M1-K169, biotinylated on the N-terminus) (Homo sapiens (Human), UniProt P01116, G12C) (assay: Covalent competition assay: scintillation proximity assay (SPA) quantifying covalent modification of KRASG12C). Conditions: competition with radiolabeled covalent probe (Compound B/Compound A), 2 hours incubation, 10 nM KRasG12C.
Type: binding
How it was run: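 Test compounds compete with a radiolabeled covalent probe for modification of N-terminally biotinylated KRasG12C(M1-K169):GDP, final 10 nM protein, 25 nM radio-ligand, 475 nM unlabelled ligand, 2 h with agitation in 20 mM Tris-HCl pH 7.5, 150 mM NaCl, 0.1 mM MgCl2, 0.01% Tween-20.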
An IC50 of 105 nM was found for `C=CC(=O)N1CC2(CC(n3nc(N4CCn5nccc5C4)c(-c4c(Cl)c(C)cc5[nH]ncc45)c3C)C2)C1` (single isomer, unassigned) [Example 10b, 1-(6-(4-(5-Chloro-6-methyl-1H-indazol-4-yl)-3-(6,7-dihydropyrazolo[1,5-a]pyrazin-5(4H)-yl)-5-methyl-1H-pyrazol-1-yl)-2-azaspiro[3.3]heptan-2-yl)prop-2-en-1-one] in this work. An IC50 of 20 nM was found for `C=CC(=O)N1CC2(CC(n3nc(N4CCN(C(=O)[C@@H]5CCCO5)CC45CCC5)c(-c4c(Cl)c(C)cc5[nH]ncc45)c3C)C2)C1` (single isomer, unassigned) [Example 124b] in this work. An IC50 of 3300 nM was found for `C=CC(=O)N1CC2(CC(n3nc(N4CC[C@@H](CN5CCN(C(=O)NC)CC5)CC4(C)C)c(-c4c(Cl)c(Cl)cc5[nH]ncc45)c3C)C2)C1` (single isomer, unassigned) [Example 289a] in this work. An IC50 of over 5000 nM was found for `C=CC(=O)N1CC2(CC(n3nc(N4CC[C@@H](CN5CCN(CCO)C(=O)C5)CC4(C)C)c(-c4c(Cl)c(Cl)cc5[nH]ncc45)c3C)C2)C1` (single isomer, unassigned) [Example 251a] in this work. An IC50 of 23 nM was found for `C=CC(=O)N1C[C@]2(C[C@H](n3nc(N4CCN(C[C@@H]5COCCO5)C[C@]4(C)CC)c(-c4c(Cl)c(C)cc5[nH]ncc45)c3C)C2)[C@H]1C` (single isomer, unassigned) [Example 200b] in this work. An IC50 of 7 nM was found for `C=CC(=O)N1CC2(CC(n3nc(N4CCC(N(CCOC)CCOC)CC45CCC5)c(-c4c(Cl)c(Cl)cc5[nH]ncc45)c3C)C2)C1` (single isomer, unassigned) [Example 80b, 1-(6-(3-(8-(bis(2-methoxyethyl)amino)-5-azaspiro[3.5]nonan-5-yl)-4-(5,6-dichloro-1H-indazol-4-yl)-5-methyl-1H-pyrazol-1-yl)-2-azaspiro[3.3]heptan-2-yl)prop-2-en-1-one] in this work. An IC50 of 747 nM was found for `C=CC(=O)N1CC2(CC(n3nc(N4CC[C@@H](CN5CC6COCC(C5)O6)CC4(C)C)c(-c4c(Cl)c(Cl)cc5[nH]ncc45)c3C)C2)C1` (single isomer, unassigned) [Example 308a] in this work. An IC50 of 46 nM was found for `C=CC(=O)N1CC2(CC(n3nc(N4CCN(C5CCOCC5)CC4(C)C)c(-c4c(Cl)c(C)cc5[nH]ncc45)c3C)C2)C1` (single isomer, unassigned) [Example 134b, 1-(6-(4-(5-chloro-6-methyl-1H-indazol-4-yl)-3-(2,2-dimethyl-4-(tetrahydro-2H-pyran-4-yl)piperazin-1-yl)-5-methyl-1H-pyrazol-1-yl)-2-azaspiro[3.3]heptan-2-yl)prop-2-en-1-one] in this work. An IC50 of 17 nM was found for `C=CC(=O)N1C[C@]2(C[C@H](n3nc(N4CC[C@@H](CN5CCN(C6COC6)CC5)CC4(C)C)c(-c4c(Cl)c(Cl)cc5[nH]ncc45)c3C)C2)[C@H]1C` (single isomer, unassigned) [Example 201b] in this work. An IC50 of 831 nM was found for `C=CC(=O)N1CC2(CC(n3nc(N4CCS(=O)(=O)CC4(C)C)c(-c4c(Cl)c(C)cc5[nH]ncc45)c3C)C2)C1` (single isomer, unassigned) [Example 82b, 1-(6-(4-(5-chloro-6-methyl-1H-indazol-4-yl)-3-(3,3-dimethyl-1,1-dioxidothiomorpholino)-5-methyl-1H-pyrazol-1-yl)-2-azaspiro[3.3]heptan-2-yl)prop-2-en-1-one] in this work. An IC50 of 410 nM was found for `C=CC(=O)N1CC2(CC(n3nc(N4CC[C@@H](CN5CCC[C@H]5C(=O)N(C)C)CC4(C)C)c(-c4c(Cl)c(Cl)cc5[nH]ncc45)c3C)C2)C1` (single isomer, unassigned) [Example 313a] in this work. An IC50 of 503 nM was found for `C=CC(=O)N1CC2(CC(n3nc(N4CCC(O)(CN5CCOCC5)CC4(C)C)c(-c4c(Cl)c(Cl)cc5[nH]ncc45)c3C)C2)C1` (single isomer, unassigned) [Example 238b, 1-(6-(4-(5,6-dichloro-1H-indazol-4-yl)-3-(4-hydroxy-2,2-dimethyl-4-(morpholinomethyl)piperidin-1-yl)-5-methyl-1H-pyrazol-1-yl)-2-azaspiro[3.3]heptan-2-yl)prop-2-en-1-one] in this work. An IC50 of 3400 nM was found for `C=CC(=O)N1CC2(CC(n3nc(N4CC[C@@H](CN5CCCC56CN(C(C)=O)C6)CC4(C)C)c(-c4c(Cl)c(Cl)cc5[nH]ncc45)c3C)C2)C1` (single isomer, unassigned) [Example 276a] in this work. An IC50 of 13 nM was found for `C=CC(=O)N1CC2(CC(n3nc(N4CCN(C5CCOCC5)C[C@]4(C)CCOC)c(-c4c(Cl)c(C)cc5[nH]ncc45)c3C)C2)C1` (single isomer, unassigned) [Example 87a] in this work. An IC50 of 10 nM was found for `C=CC(=O)N1CC2(CC(n3nc(N4CCN(C[C@@H]5COCCO5)C[C@@]4(CC)C(F)F)c(-c4c(Cl)c(C)cc5[nH]ncc45)c3C)C2)C1` (single isomer, unassigned) [Example 107b] in this work. An IC50 of over 5000 nM was found for `C/C=C/C(=O)N1CC2(CC(n3nc(N4CCN(C5COC5)CC45CCC5)c(-c4c(Cl)c(C)cc5[nH]ncc45)c3C)C2)C1` (single isomer, unassigned) [Example 138a, (E)-1-(6-(4-(5-chloro-6-methyl-1H-indazol-4-yl)-5-methyl-3-(8-(oxetan-3-yl)-5,8-diazaspiro[3.5]nonan-5-yl)-1H-pyrazol-1-yl)-2-azaspiro[3.3]heptan-2-yl)but-2-en-1-one] in this work. An IC50 of 4900 nM was found for `C=CC(=O)N1CC2(CC(n3nc(N4CCC(CN5CC6COCC6C5)CC4(C)C)c(-c4c(Cl)c(Cl)cc5[nH]ncc45)c3C)C2)C1` (single isomer, unassigned) [Example 227a, 1-(6-(4-(5,6-dichloro-1H-indazol-4-yl)-3-(2,2-dimethyl-4-((tetrahydro-1H-furo[3,4-c]pyrrol-5(3H)-yl)methyl)piperidin-1-yl)-5-methyl-1H-pyrazol-1-yl)-2-azaspiro[3.3]heptan-2-yl)prop-2-en-1-one] in this work. An IC50 of 42 nM was found for `C=CC(=O)N1CC2(CC(n3nc(N4CCC(CN5CCOCC5)C4(C)C)c(-c4c(Cl)c(Cl)cc5[nH]ncc45)c3C)C2)C1` (single isomer, unassigned) [Example 219b, 1-(6-(4-(5,6-dichloro-1H-indazol-4-yl)-3-(2,2-dimethyl-3-(morpholinomethyl)pyrrolidin-1-yl)-5-methyl-1H-pyrazol-1-yl)-2-azaspiro[3.3]heptan-2-yl)prop-2-en-1-one] in this work. An IC50 of over 50000 nM was found for `C=CC(=O)N1CC2(CC(n3nc(N4CCCc5c(cnn5C)C4)c(-c4c(Cl)c(C)cc5[nH]ncc45)c3C)C2)C1` (single isomer, unassigned) [Example 43a, 1-(6-(4-(5-chloro-6-methyl-1H-indazol-4-yl)-5-methyl-3-(1-methyl-4,6,7,8-tetrahydropyrazolo[4,3-c]azepin-5(1H)-yl)-1H-pyrazol-1-yl)-2-azaspiro[3.3]heptan-2-yl)prop-2-en-1-one] in this work. An IC50 of 29 nM was found for `C=CC(=O)N1CC2(CC(n3nc(N4CCN(C5CCOC5)CC45CCC5)c(-c4c(Cl)c(C)cc5[nH]ncc45)c3C)C2)C1` (single isomer, unassigned) [Example 132d, 1-(6-(4-(5-chloro-6-methyl-1H-indazol-4-yl)-5-methyl-3-(8-(tetrahydrofuran-3-yl)-5,8-diazaspiro[3.5]nonan-5-yl)-1H-pyrazol-1-yl)-2-azaspiro[3.3]heptan-2-yl)prop-2-en-1-one] in this work. An IC50 of 1670 nM was found for `C=CC(=O)N1CC2(CC(n3nc(N4CC[C@@H](CN5CCN(C6COC6)C6COCC65)CC4(C)C)c(-c4c(Cl)c(Cl)cc5[nH]ncc45)c3C)C2)C1` (single isomer, unassigned) [Example 281a, 1-(6-(4-(5,6-dichloro-1H-indazol-4-yl)-3-((R)-2,2-dimethyl-4-(((4aS*,7aR*)-4-(oxetan-3-yl)hexahydrofuro[3,4-b]pyrazin-1(2H)-yl)methyl)piperidin-1-yl)-5-methyl-1H-pyrazol-1-yl)-2-azaspiro[3.3]heptan-2-yl)prop-2-en-1-one] in this work. An IC50 of over 5000 nM was found for `C=CC(=O)N1CC2(CC(n3nc(N4CCN(CC(C)(C)O)C[C@@]4(C)C(F)F)c(-c4c(Cl)c(C)cc5[nH]ncc45)c3C)C2)C1` (single isomer, unassigned) [Example 166a] in this work. An IC50 of 50000 nM was found for `C=CC(=O)N1CC2(CC(n3nc(N4CCS(=O)(=O)CC4(C)C)c(-c4c(Cl)c(C)cc5[nH]ncc45)c3C)C2)C1` (single isomer, unassigned) [Example 82a, 1-(6-(4-(5-chloro-6-methyl-1H-indazol-4-yl)-3-(3,3-dimethyl-1,1-dioxidothiomorpholino)-5-methyl-1H-pyrazol-1-yl)-2-azaspiro[3.3]heptan-2-yl)prop-2-en-1-one] in this work. An IC50 of over 5000 nM was found for `C=CC(=O)N1CC2(CC(n3nc(N4CC[C@@H](CN5CC6(COCCN6C)C5)CC4(C)C)c(-c4c(Cl)c(Cl)cc5[nH]ncc45)c3C)C2)C1` (single isomer, unassigned) [Example 291a] in this work. An IC50 of 12 nM was found for `C=CC(=O)N1CC2(CC(n3nc(N4CCN(C5CCOCC5)CC45CCC5)c(-c4c(Cl)c(Cl)cc5[nH]ncc45)c3C)C2)C1` (single isomer, unassigned) [Example 145b, 1-(6-(4-(5,6-dichloro-1H-indazol-4-yl)-5-methyl-3-(8-(tetrahydro-2H-pyran-4-yl)-5,8-diazaspiro[3.5]nonan-5-yl)-1H-pyrazol-1-yl)-2-azaspiro[3.3]heptan-2-yl)prop-2-en-1-one] in this work. An IC50 of 17800 nM was found for `C=CC(=O)N1CC2(CC(n3nc(N4CCN(C5COC5)CC45CCC5)c(-c4c(Cl)c(C)cc5[nH]ncc45)c3C)C2)C1` (single isomer, unassigned) [Example 54a, 1-(6-(4-(5-Chloro-6-methyl-1H-indazol-4-yl)-5-methyl-3-(8-(oxetan-3-yl)-5,8-diazaspiro[3.5]nonan-5-yl)-1H-pyrazol-1-yl)-2-azaspiro[3.3]heptan-2-yl)prop-2-en-1-one] in this work. An IC50 of 8 nM was found for `C=CC(=O)N1CC2(CC(n3nc(N4CC[C@@H](CN5CCn6cnnc6C5)CC4(C)C)c(-c4c(Cl)c(Cl)cc5[nH]ncc45)c3C)C2)C1` (single isomer, unassigned) [Example 250b] in this work.

Source: patent publication US20240317721A1, “PYRAZOLYL DERIVATIVES AS INHIBITORS OF THE KRAS MUTANT PROTEIN” (NOVARTIS AG, priority 2021, published 2024)
